Entries after “also recorded” stand apart in the source; their conditions may differ. Ends that are not written are not given here. * marks the point of attachment. Octanoyl = CCCCCCCC(=O)*
Experiments:
[1] = system: Ghsr; conditions: cited from earlier work
[2] = system: immature DCX+ neurons within the SGZ; experiment: Immature DCX+ neurons in the SGZ of wild-type mice; format: in vivo; conditions: i.v. 48 μg/day for 7 days, vs vehicle
From the text: (§1) Cell proliferation in the hippocampal dentate gyms was subsequently analysed using a one-in-fifteen series of 10 μm sections (150 μm apart) from each animal. These were stained for Ki67 immunofluorescence and a primary antibody rabbit anti-Ki67 (1:500 Abcam) applied. Immunolabelled cells were counted throughout the rostro-caudal extent of the granule cell layer and quantified.
(§2) Immunolabelled cells were counted bilaterally using a ×40 objective (Zeiss Axioscope) throughout the rostro-caudal extent of the granule cell layer (GCL). Resulting numbers were divided by the number of coronal sections analyzed and multiplied by the distance between each section to obtain an estimate of the number of cells per hippocampus (and divided by 2 to obtain the total per dentate gyms).
(§3) To determine whether unacylated-ghrelin (UAG) regulates NSPC plasticity, cell proliferation and immature neurons were quantified in wild-type mice following either peripheral administration of saline or UAG (i.v, 48 μg/day, n=6/group) for 7-days. The method was similar to that described in Example 1.

[3] = system: dividing cells (Ki67+) in the sub-granular zone of the dentate gyrus; experiment: Ki67 cell proliferation in hippocampal dentate gyrus of wild-type and ghsr-/- mice; format: in vivo; conditions: i.v. 48 μg/day for 7 days; for Ki67+ cells (cell proliferation) in the DG of adult wild-type mice: vs saline
Description: To further examine the role of ghrelin in enhancing cell proliferation in the SGZ, the effect of peripherally administered ghrelin in both wild-type and ghrelin-receptor null (ghsr^−/−) mice (Zigman et al. J. Clin. Invest (2005)115 (12:3564-72)) was analysed.
Adult growth hormone secretagogue receptor (GHSR)-null mice (8-10 weeks-old) and their wild-type littermates were used. These were derived from crosses between animals that were heterozygous for the GHSR-null allele and that had been backcrossed >10 generations onto a C57BL6/J genetic background. Metabolic aspects of these mice have been published (Davies et al. 2009 Molecular Endocrinology, 23(6), 914-24.).
Ghrelin was administered peripherally via an intravenous osmotic mini-pump at a rate of 1 μl/hour with a total of 48 μg/day to groups of 6 mice. Control groups were given peripheral saline.
After 7 days, mice were killed by cervical dislocation whole brain was removed and immediately snap frozen on dry ice.
as §1, §2
All experiments and analyses were performed blind to genotype and treatment.
Statistical analyses were carried out using GraphPad Prizm 6.0 for Mac. Statistical significance was assessed by unpaired two-tailed Student's t-test or one-way ANOVA with Bonferroni's post-hoc test unless described otherwise: *, P<0.05; **, P<0.01; ***, P<0.001.
as §3

[4] = rats; 10 μg/kg i.p; cited from earlier work
[5] = system: spatial pattern separation; experiment: Spontaneous location recognition (SLR) task, spatial pattern separation; format: in vivo, rat; conditions: rats, 10 μg/kg i.p daily days 1-14, tested days 22-26
Description: A) Experimental paradigm B) Schematic of Spontaneous location recognition (SLR) task. During a sample phase animals were exposed to 3 identical objections (two were located close together (small separation) or very close together (X-small separation) and the 3rd was further away) for 10 minutes. 24 hours later the rats were exposed to 2 of the objects during the test phase and the time spent exploring each object was measured. Dotted objects indicate the original location during the sample phase. C) Discrimination ratios during the test phase for ‘novel’ conditions in the SLR task. […] D) Representative images of the new adult-born DG neurons (white arrows) co-expressing NeuN^+ and BrdU^+. […] Scale bar=100 μm.
(§4) Adult male Lister-hooded rats (n=12/group) were given daily injections of either saline or ghrelin (10 μg/kg i.p) (days 1-14) and BrdU (50 mg/kg i.p) on days 5-8 prior to analysis of spatial pattern separation using a spontaneous location recognition task (SLR) on days 22-26.
To reduce/avoid the acute LTP-mediated effects on pattern separation the final injection of ghrelin was given 7 days before the start of cognitive testing.

[6] = system: adult rat hippocampus; experiment: BrdU+ cell proliferation in adult rat hippocampus after 7-day i.v. infusion (FIG. 1A); format: in vivo; conditions: 7-day i.v. infusion 80 μg/day; BrdU 50 mg/kg i.p 30 minutes prior to brain collection; vs vehicle
[7] = system: new adult-born DG neurons; experiment: New adult-born neurons (BrdU+/NeuN+) and neuroblasts (DCX+) in rat DG; format: in vivo; conditions: rats; for total number of new adult-born neurones (BrdU+/NeuN+) in the DG: 10 μg/kg i.p daily days 1-14, BrdU days 5-8, vs saline
Description: as §4
Animals were anesthetized with sodium pentobarbital and perfused transcardially with 0.9% NaCl solution, followed by 4% paraformaldehyde (PFA) in 0.1M phosphate buffer, pH 7.4. Brains were post-fixed in 4% PFA for 24 h, and cryoprotected in 30% sucrose for 24 h. The brains were then sectioned on a freezing-stage microtome into a 30 μm thick coronal section series. Immunohistochemical staining was performed on free-floating sections.
For detection of BrdU, sections were pre-treated with 2N HCl for 30 mins at 37° C. and washed in 0.1 M borate buffer, pH8.5, for 10 min. Immunofluorescent double-labeling was performed.
Primary antibodies used were: mouse anti-BrdU (1:50 AbD Serotec, UK), goat anti-doublecortin (Santa Cruz Biotechnology, USA), mouse anti-NeuN (Chemicon, Temecula, Calif., USA). Sections were also stained with Hoechst (Invitrogen) and mounted with prolong-gold anti-fade reagent (Invitrogen).
A one-in-twelve series of 30 μm sections (360 μm apart) from each animal was immunohistologically stained (as described in Example 1 above) and analysed by fluorescent and/or confocal microscopy. Immunolabelled cells were counted also as described in Example 1. Only cells with complete/strong BrdU immunoreactivity, oval nuclei, were counted.

| Substance | binding or activation of Ghsr [1] | number of immature DCX+ neurons within the SGZ [2] | Ki67+ cells (cell proliferation) in the DG of adult wild-type mice [3] | food intake [4] | SLR task, discrimination of 'novel' location, X-small separation condition (pattern separation) [5] | SLR task, discrimination of 'novel' location, small separation condition [5] | SLR task, discrimination of 'novel' location, X-small separation condition (pattern separation) ([5]; listed as acyl-ghrelin) | number of BrdU+ cells in adult rat hippocampus [6] | Ki67+ cells (cell proliferation) in the DG of ghsr-/- mice ([3]; ghrelin-receptor null (ghsr-/-) mice) | Ki67+ cells (cell proliferation) in the DG of adult wild-type mice ([3]; listed as Ghrelin) | total number of new adult-born neurones (BrdU+/NeuN+) in the DG [7] | total number of new adult-born neurones (BrdU+/NeuN+) in the DG ([7]; listed as Ghrelin) | total number of new adult-born neurones (BrdU+/NeuN+) in the DG ([7]; listed as acyl-ghrelin) | DG neuroblast number (DCX+) ([7]; 14 days after the final injection, data not shown) |
| --- | --- | --- | --- | --- | --- | --- | --- | --- | --- | --- | --- | --- | --- | --- |
| UAG: unacylated-ghrelin, the de-acylated form of ghrelin (GSSFLSPEHQRVQQRKESKKPPAKLQPR; Ghrelin-28 unacylated; UniProt Q9UBU3 24-51, looked up) | does not bind or activate Ghsr | impairments; also recorded: reduced; also recorded: significant reduction in the number of immature DCX^+ neurons | impairments observed in hippocampal cell proliferation; also recorded: reduced the number of dividing cells; also recorded: attenuated hippocampal cell proliferation |  |  |  |  |  |  |  |  |  |  |  |
| ghrelin: gut hormone, 28 amino acid peptide with octanoyl modification on Ser-3; endogenous ligand of GHS-R 1a (GSS(Octanoyl)FLSPEHQRVQQRKESKKPPAKLQPR; UniProt Q9UBU3 24-51, looked up) |  |  | increased Ki67^+ cells | increase food intake | only ghrelin treated rats showed enhanced exploratory behaviour; also recorded: able to distinguish between very similar spatial locations | enhanced exploratory behaviour for the ‘novel’ location in the small separation condition; also recorded: able to distinguish similar but distinct spatial locations | improved pattern separation learning | increased the number of BrdU^+ cells | no corresponding increase was observed; also recorded: inhibited the proliferative effect of ghrelin | significant increase in cell proliferation | significantly increased | significantly increased the number of new adult-born neurons | increased the number of new adult born neurons | remained significantly higher |

Reference: patent publication US20160108135A1, “GHRELIN IN THE DIAGNOSIS OF CNS DISORDERS” (priority 2013, published 2016)
